Reference: the NIST ThermoML archive (doi:10.1016/j.jct.2012.05.012)

Assays:
[1] = refractive index (Na D-line) (dimensionless); wn = mass fraction of the nth substance listed; conditions: 101 kPa, Liquid, Standard Abbe refractometry
[2] = wn = mass fraction of the nth substance listed; conditions: for surface tension liquid-gas: Maximal bubble pressure; for mass density: 101 kPa, Liquid, Vibrating tube method

CCCCn1cc[n+](C)c1.NCC(=O)[O-] [1-butyl-3-methylimidazolium glycinate] + O
Conditions | mass density [kg/m3] | refractive index | surface tension liquid-gas [mN/m]
[1], 293.15 K, w2 = 0.0081 | – | 1.4993 | –
[1], 293.15 K, w2 = 0.0102 | – | 1.4968 | –
[1], 293.15 K, w2 = 0.0121 | – | 1.4944 | –
[1], 293.15 K, w2 = 0.014 | – | 1.4918 | –
[1], 293.15 K, w2 = 0.0161 | – | 1.4896 | –
[1], 298.15 K, w2 = 0.0081 | – | 1.4982 | –
[1], 298.15 K, w2 = 0.0102 | – | 1.4954 | –
[1], 298.15 K, w2 = 0.0121 | – | 1.4928 | –
[1], 298.15 K, w2 = 0.014 | – | 1.4907 | –
[1], 298.15 K, w2 = 0.0161 | – | 1.4879 | –
[1], 303.15 K, w2 = 0.0081 | – | 1.497 | –
[1], 303.15 K, w2 = 0.0102 | – | 1.4941 | –
[1], 303.15 K, w2 = 0.0121 | – | 1.4916 | –
[1], 303.15 K, w2 = 0.014 | – | 1.4895 | –
[1], 303.15 K, w2 = 0.0161 | – | 1.4869 | –
[1], 308.15 K, w2 = 0.0081 | – | 1.4955 | –
[1], 308.15 K, w2 = 0.0102 | – | 1.4927 | –
[1], 308.15 K, w2 = 0.0121 | – | 1.4907 | –
[1], 308.15 K, w2 = 0.014 | – | 1.4884 | –
[1], 308.15 K, w2 = 0.0161 | – | 1.4858 | –
[1], 313.15 K, w2 = 0.0081 | – | 1.4943 | –
[1], 313.15 K, w2 = 0.0102 | – | 1.4915 | –
[1], 313.15 K, w2 = 0.0121 | – | 1.4893 | –
[1], 313.15 K, w2 = 0.014 | – | 1.4872 | –
[1], 313.15 K, w2 = 0.0161 | – | 1.4845 | –
[1], 318.15 K, w2 = 0.0081 | – | 1.4931 | –
[1], 318.15 K, w2 = 0.0102 | – | 1.4904 | –
[1], 318.15 K, w2 = 0.0121 | – | 1.4879 | –
[1], 318.15 K, w2 = 0.014 | – | 1.4855 | –
[1], 318.15 K, w2 = 0.0161 | – | 1.4832 | –
[1], 323.15 K, w2 = 0.0081 | – | 1.4917 | –
[1], 323.15 K, w2 = 0.0102 | – | 1.4888 | –
[1], 323.15 K, w2 = 0.0121 | – | 1.4864 | –
[1], 323.15 K, w2 = 0.014 | – | 1.4838 | –
[1], 323.15 K, w2 = 0.0161 | – | 1.4814 | –
[2], 283.15 K, w2 = 0.0081 | 1121.2 | – | 45.7
[2], 283.15 K, w2 = 0.0091 | – | – | 45.9
[2], 283.15 K, w2 = 0.0102 | – | – | 46.1
[2], 283.15 K, w2 = 0.0118 | – | – | 46.3
[2], 283.15 K, w2 = 0.0129 | 1121.5 | – | –
[2], 283.15 K, w2 = 0.0131 | – | – | 46.6
[2], 283.15 K, w2 = 0.018 | 1121.8 | – | –
[2], 283.15 K, w2 = 0.0234 | 1122.2 | – | –
[2], 283.15 K, w2 = 0.0293 | 1122.6 | – | –
[2], 288.15 K, w2 = 0.0081 | 1118 | – | 45.5
[2], 288.15 K, w2 = 0.0091 | – | – | 45.7
[2], 288.15 K, w2 = 0.0102 | – | – | 45.9
[2], 288.15 K, w2 = 0.0118 | – | – | 46.2
[2], 288.15 K, w2 = 0.0129 | 1118.3 | – | –
[2], 288.15 K, w2 = 0.0131 | – | – | 46.4
[2], 288.15 K, w2 = 0.018 | 1118.7 | – | –
[2], 288.15 K, w2 = 0.0234 | 1119.1 | – | –
[2], 288.15 K, w2 = 0.0293 | 1119.5 | – | –
[2], 293.15 K, w2 = 0.0081 | 1114.8 | – | 45.3
[2], 293.15 K, w2 = 0.0091 | – | – | 45.5
[2], 293.15 K, w2 = 0.0102 | – | – | 45.7
[2], 293.15 K, w2 = 0.0118 | – | – | 46
[2], 293.15 K, w2 = 0.0129 | 1115.1 | – | –
[2], 293.15 K, w2 = 0.0131 | – | – | 46.2
[2], 293.15 K, w2 = 0.018 | 1115.5 | – | –
[2], 293.15 K, w2 = 0.0234 | 1115.9 | – | –
[2], 293.15 K, w2 = 0.0293 | 1116.3 | – | –
[2], 298.15 K, w2 = 0.0081 | 1111.5 | – | 45
[2], 298.15 K, w2 = 0.0091 | – | – | 45.2
[2], 298.15 K, w2 = 0.0102 | – | – | 45.4
[2], 298.15 K, w2 = 0.0118 | – | – | 45.7
[2], 298.15 K, w2 = 0.0129 | 1111.9 | – | –
[2], 298.15 K, w2 = 0.0131 | – | – | 45.9
[2], 298.15 K, w2 = 0.018 | 1112.3 | – | –
[2], 298.15 K, w2 = 0.0234 | 1112.7 | – | –
[2], 298.15 K, w2 = 0.0293 | 1113.1 | – | –
[2], 303.15 K, w2 = 0.0081 | 1108.4 | – | 44.8
[2], 303.15 K, w2 = 0.0091 | – | – | 45
[2], 303.15 K, w2 = 0.0102 | – | – | 45.2
[2], 303.15 K, w2 = 0.0118 | – | – | 45.5
[2], 303.15 K, w2 = 0.0129 | 1108.9 | – | –
[2], 303.15 K, w2 = 0.0131 | – | – | 45.8
[2], 303.15 K, w2 = 0.018 | 1109.3 | – | –
[2], 303.15 K, w2 = 0.0234 | 1109.7 | – | –
[2], 303.15 K, w2 = 0.0293 | 1110.2 | – | –
[2], 308.15 K, w2 = 0.0081 | 1105.4 | – | 44.5
[2], 308.15 K, w2 = 0.0091 | – | – | 44.7
[2], 308.15 K, w2 = 0.0102 | – | – | 44.9
[2], 308.15 K, w2 = 0.0118 | – | – | 45.2
[2], 308.15 K, w2 = 0.0129 | 1105.7 | – | –
[2], 308.15 K, w2 = 0.0131 | – | – | 45.5
[2], 308.15 K, w2 = 0.018 | 1106.2 | – | –
[2], 308.15 K, w2 = 0.0234 | 1106.6 | – | –
[2], 308.15 K, w2 = 0.0293 | 1107.1 | – | –
[2], 313.15 K, w2 = 0.0081 | 1102.2 | – | 44.2
[2], 313.15 K, w2 = 0.0091 | – | – | 44.4
[2], 313.15 K, w2 = 0.0102 | – | – | 44.6
[2], 313.15 K, w2 = 0.0118 | – | – | 44.9
[2], 313.15 K, w2 = 0.0129 | 1102.6 | – | –
[2], 313.15 K, w2 = 0.0131 | – | – | 45.2
[2], 313.15 K, w2 = 0.018 | 1103 | – | –
[2], 313.15 K, w2 = 0.0234 | 1103.4 | – | –
[2], 313.15 K, w2 = 0.0293 | 1103.9 | – | –
[2], 318.15 K, w2 = 0.0081 | 1099.2 | – | 43.7
[2], 318.15 K, w2 = 0.0091 | – | – | 43.9
[2], 318.15 K, w2 = 0.0102 | – | – | 44.1
[2], 318.15 K, w2 = 0.0118 | – | – | 44.4
[2], 318.15 K, w2 = 0.0129 | 1099.5 | – | –
[2], 318.15 K, w2 = 0.0131 | – | – | 44.6
[2], 318.15 K, w2 = 0.018 | 1099.9 | – | –
[2], 318.15 K, w2 = 0.0234 | 1100.3 | – | –
[2], 318.15 K, w2 = 0.0293 | 1100.7 | – | –
[2], 323.15 K, w2 = 0.0081 | 1096.1 | – | 43.3
[2], 323.15 K, w2 = 0.0091 | – | – | 43.5
[2], 323.15 K, w2 = 0.0102 | – | – | 43.7
[2], 323.15 K, w2 = 0.0118 | – | – | 44
[2], 323.15 K, w2 = 0.0129 | 1096.4 | – | –
[2], 323.15 K, w2 = 0.0131 | – | – | 44.2
[2], 323.15 K, w2 = 0.018 | 1096.8 | – | –
[2], 323.15 K, w2 = 0.0234 | 1097.2 | – | –
[2], 323.15 K, w2 = 0.0293 | 1097.6 | – | –
[2], 328.15 K, w2 = 0.0081 | 1092.9 | – | 42.9
[2], 328.15 K, w2 = 0.0091 | – | – | 43.1
[2], 328.15 K, w2 = 0.0102 | – | – | 43.3
[2], 328.15 K, w2 = 0.0118 | – | – | 43.5
[2], 328.15 K, w2 = 0.0129 | 1093.2 | – | –
[2], 328.15 K, w2 = 0.0131 | – | – | 43.8
[2], 328.15 K, w2 = 0.018 | 1093.6 | – | –
[2], 328.15 K, w2 = 0.0234 | 1094 | – | –
[2], 328.15 K, w2 = 0.0293 | 1094.4 | – | –
